# Results as given in ChEMBL document CHEMBL1201862, “PubChem BioAssay data set” (2004).
#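 Assay format: 96-well plates, 48-hour exposure. GI50 is the concentration that inhibits growth by half.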 Activity calls are given as the source filed them. No stated cut-off is given here; in the data, active = GI50 up to about 1.1 µM and inactive = higher.
# Key:
# Test in all cases: inhibition of tumour cell growth, NCI panel, 48 h
# [1] = test system: SNB-19
# [2] = test system: UACC-62
# [3] = test system: SK-MEL-28
# [4] = test system: SF-295
# [5] = test system: SN12C
# [6] = test system: HCC 2998
# [7] = test system: IGROV-1
# [8] = test system: NCI-H460
# [9] = test system: HL-60
# [10] = test system: LOX IMVI
# [11] = test system: MCF7
# [12] = test system: UACC-257
# [13] = test system: K562
# [14] = test system: CCRF-CEM
# [15] = test system: CAKI-1
# [16] = test system: U-251
# [17] = test system: NCI/ADR-RES
# [18] = test system: SNB-75
# [19] = test system: HOP-62
# [20] = test system: SR
Compound,GI50 [1],GI50 [2],GI50 [3],GI50 [4],GI50 [5],GI50 [6],GI50 [7],GI50 [8],GI50 [9],GI50 [10],GI50 [11],GI50 [12],GI50 [13],GI50 [14],GI50 [15],GI50 [16],GI50 [17],GI50 [18],GI50 [19],GI50 [20]
O=S(=O)(CCBr)CCBr,17.6 µM (inactive),2.96 µM (inactive),2.67 µM (inactive),15.7 µM (inactive),9.02 µM (inactive),6.95 µM (inactive),5.42 µM (inactive),12 µM (inactive),2.59 µM (inactive),7.67 µM (inactive),4.91 µM (inactive),3.82 µM (inactive),3.98 µM (inactive),2.96 µM (inactive),5.3 µM (inactive),15.7 µM (inactive),2.17 µM (inactive),12.8 µM (inactive),0.506 µM (active),
O=C(O)CSc1nnc(/C=C/c2ccccc2)[nH]1,> 100 µM (inactive),> 100 µM (inactive),> 100 µM (inactive),> 100 µM (inactive),> 100 µM (inactive),> 100 µM (inactive),> 100 µM (inactive),> 100 µM (inactive),> 100 µM (inactive),> 61.2 µM (inactive),,> 100 µM (inactive),> 100 µM (inactive),> 100 µM (inactive),> 100 µM (inactive),> 100 µM (inactive),,> 100 µM (inactive),> 100 µM (inactive),> 100 µM (inactive)
CNC(=S)N/N=C(/C)CCC/C(C)=N/NC(=S)NC,> 100 µM (inactive),> 58.2 µM (inactive),> 34.6 µM (inactive),> 100 µM (inactive),> 74.5 µM (inactive),,3.02 µM (inactive),> 56.9 µM (inactive),> 100 µM (inactive),1.8 µM (inactive),0.151 µM (active),> 100 µM (inactive),0.408 µM (active),0.145 µM (active),> 100 µM (inactive),> 42.1 µM (inactive),> 100 µM (inactive),29 µM (inactive),> 100 µM (inactive),3.89 µM (inactive)
CSc1nc(NC2OC(CO)C(O)C(O)C2O)c(N)c(=O)n1C (stereo unspecified),> 100 µM (inactive),> 100 µM (inactive),> 100 µM (inactive),> 100 µM (inactive),> 100 µM (inactive),> 100 µM (inactive),> 100 µM (inactive),> 100 µM (inactive),> 100 µM (inactive),> 100 µM (inactive),> 100 µM (inactive),> 100 µM (inactive),> 100 µM (inactive),> 100 µM (inactive),,> 100 µM (inactive),> 100 µM (inactive),> 100 µM (inactive),> 100 µM (inactive),
C=C1CC(OC)(C(OC)C(=O)N(C)[C@H]2OCO[C@H]3C2O[C@H](C[C@@H](COC)OC)C(C)(C)C3OC)O[C@H](C)[C@@H]1C (stereo partly specified),8.97 µM (inactive),14.5 µM (inactive),8.18 µM (inactive),7 µM (inactive),22.5 µM (inactive),10.8 µM (inactive),10.1 µM (inactive),9.46 µM (inactive),15.9 µM (inactive),5.68 µM (inactive),5.3 µM (inactive),11.6 µM (inactive),13.6 µM (inactive),7.71 µM (inactive),5.69 µM (inactive),10.6 µM (inactive),7.91 µM (inactive),4.4 µM (inactive),> 91.6 µM (inactive),
CN(C)CCCNC(=O)c1c(-c2cccnc2)cnc2ccccc12,> 100 µM (inactive),> 100 µM (inactive),> 100 µM (inactive),> 100 µM (inactive),> 100 µM (inactive),> 100 µM (inactive),> 100 µM (inactive),> 100 µM (inactive),> 100 µM (inactive),,> 100 µM (inactive),> 100 µM (inactive),> 100 µM (inactive),> 100 µM (inactive),> 100 µM (inactive),> 100 µM (inactive),> 100 µM (inactive),14.9 µM (inactive),> 100 µM (inactive),> 100 µM (inactive)
C[n+]1ccc(Nc2ccc(NC(=O)c3ccc(Nc4cc[n+](C)c5ccc([N+](=O)[O-])cc45)cc3[N+](=O)[O-])cc2)cc1,> 73.3 µM (inactive),26.1 µM (inactive),25.9 µM (inactive),30.4 µM (inactive),57.4 µM (inactive),> 100 µM (inactive),,25.7 µM (inactive),,> 68.2 µM (inactive),,24.3 µM (inactive),14.3 µM (inactive),24.4 µM (inactive),> 75.3 µM (inactive),22.6 µM (inactive),> 85.7 µM (inactive),> 57.4 µM (inactive),59.8 µM (inactive),
CCCCN(CCCC)C(=O)C(=O)C(C(=O)C(=O)OC)c1nc2ccccc2o1 (stereo unspecified),> 100 µM (inactive),,> 100 µM (inactive),> 100 µM (inactive),> 100 µM (inactive),> 100 µM (inactive),50.8 µM (inactive),> 100 µM (inactive),69.3 µM (inactive),44.8 µM (inactive),,> 100 µM (inactive),65.9 µM (inactive),34.8 µM (inactive),> 100 µM (inactive),90.6 µM (inactive),,> 100 µM (inactive),74.5 µM (inactive),48.8 µM (inactive)
CCC1CN2CCc3cc(OC)c(OC)cc3C2CC1CC1c2cc(OC)c(OC)cc2CCN1C(=O)C(N)Cc1ccccc1.[O-][Cl+3]([O-])([O-])O (stereo unspecified),1.85 µM (inactive),3.11 µM (inactive),3.32 µM (inactive),2.05 µM (inactive),2.35 µM (inactive),0.564 µM (active),,0.538 µM (active),1.59 µM (inactive),0.386 µM (active),,2.35 µM (inactive),0.238 µM (active),0.41 µM (active),1.95 µM (inactive),2.06 µM (inactive),,2.94 µM (inactive),2.73 µM (inactive),0.423 µM (active)
N#CCCN(CCC#N)c1ccc(/C=C2\N=C(c3cc([N+](=O)[O-])ccc3Cl)N(S(=O)(=O)c3ccccc3)C2=O)cc1,> 100 µM (inactive),> 100 µM (inactive),> 100 µM (inactive),> 100 µM (inactive),> 100 µM (inactive),> 100 µM (inactive),> 100 µM (inactive),,,> 100 µM (inactive),,,> 100 µM (inactive),> 100 µM (inactive),> 100 µM (inactive),> 100 µM (inactive),,,> 100 µM (inactive),> 100 µM (inactive)
Cc1cc(C)c2c(c1)CC1(Cc3c(C)ccc(C)c3C1=O)C2=O (stereo unspecified),> 100 µM (inactive),> 100 µM (inactive),> 100 µM (inactive),> 100 µM (inactive),> 100 µM (inactive),> 100 µM (inactive),> 100 µM (inactive),> 100 µM (inactive),> 100 µM (inactive),,> 100 µM (inactive),> 100 µM (inactive),> 100 µM (inactive),> 100 µM (inactive),> 100 µM (inactive),> 100 µM (inactive),> 100 µM (inactive),> 100 µM (inactive),,> 100 µM (inactive)
COc1cc(O)c(Cc2ccccc2O)c(O)c1C(=O)CCc1ccccc1 [UVARETIN],6.55 µM (inactive),4.4 µM (inactive),7 µM (inactive),5.9 µM (inactive),4.82 µM (inactive),6.1 µM (inactive),6.97 µM (inactive),4.49 µM (inactive),4.43 µM (inactive),6.05 µM (inactive),5.81 µM (inactive),5.36 µM (inactive),5.26 µM (inactive),6.21 µM (inactive),5.24 µM (inactive),5.12 µM (inactive),5.66 µM (inactive),6.92 µM (inactive),2.47 µM (inactive),
CC(C)(CO)NC(=O)c1cccc(C(=O)NC(C)(C)CO)c1Br,> 100 µM (inactive),> 100 µM (inactive),> 100 µM (inactive),,,> 100 µM (inactive),> 100 µM (inactive),> 100 µM (inactive),> 100 µM (inactive),> 100 µM (inactive),> 100 µM (inactive),> 100 µM (inactive),> 100 µM (inactive),,> 100 µM (inactive),> 100 µM (inactive),> 100 µM (inactive),32.3 µM (inactive),> 100 µM (inactive),> 100 µM (inactive)
CC1(C)O[C@H]2OC(CO)C(OS(C)(=O)=O)[C@H]2O1 (stereo partly specified),> 100 µM (inactive),> 100 µM (inactive),> 100 µM (inactive),> 100 µM (inactive),> 100 µM (inactive),> 100 µM (inactive),> 100 µM (inactive),> 100 µM (inactive),> 100 µM (inactive),> 100 µM (inactive),> 100 µM (inactive),> 100 µM (inactive),,> 100 µM (inactive),> 100 µM (inactive),> 100 µM (inactive),> 100 µM (inactive),> 100 µM (inactive),> 100 µM (inactive),
CC(=O)C(=O)NC1/C=C(C)\C=C/C(O)C/C=C(C)\C=C/C(O)CC2OC(=O)C1(C)C(=O)C2C (stereo unspecified),> 100 µM (inactive),> 100 µM (inactive),> 100 µM (inactive),> 100 µM (inactive),> 100 µM (inactive),> 100 µM (inactive),> 100 µM (inactive),> 100 µM (inactive),,> 100 µM (inactive),> 100 µM (inactive),> 100 µM (inactive),> 61.1 µM (inactive),> 76.7 µM (inactive),> 100 µM (inactive),> 100 µM (inactive),> 100 µM (inactive),> 100 µM (inactive),> 100 µM (inactive),
